These results are taken from patent US20100094407A1, “Multiple Bioactive Agent Eluting Stents” (Medtronic Vascular, Inc., priority 2008, published 2010).

The series is described as follows: Elution of fluocinolone and zotarolimus from coated stents, Example 1. Type of series: physicochemical. The following applies: 60 μg zotarolimus with or without 80 μg fluocinolone; FIG. 4. The text has this: In one embodiment, the present disclosure relates to a multiple bioactive agent eluting stent comprising a stent framework, at least two bioactive agents on the stent framework, wherein one or more of the at least two bioactive agents affects the elution rate of one or more of the other of the at least two bioactive agents. The elution rate or profile of the bioactive agents can be determined utilizing the methods showing in Examples 1 and 2 below. For example, total cumulative release of applied bioactive agents can be measured to determine total daily release and also release over a period of time greater than one day. The at least two bioactive agents may be applied together onto a stent framework. There may be one coating which contains all of the bioactive agents. Alternatively, the bioactive agents can be applied to the stent framework in separate coatings. Each coating may contain just one bioactive agent or more than one bioactive agent. The coatings may constitute separate layers. There can also be a base layer and cap layer on the stent framework. Base layer is located closest to the stent framework and the cap layer is a layer which is located furthest away from the stent framework. The layers can be uniform or non-uniform, meaning the layers can be in the form of, for example, dots or stripes or other non-uniform patterns.
12 mm parylene coated stents were used for all builds. […]

Take `CO[C@H]1C[C@@H]2CC[C@@H](C)[C@@](O)(O2)C(=O)C(=O)N2CCCC[C@H]2C(=O)O[C@H]([C@H](C)C[C@@H]2CC[C@H](n3cnnn3)[C@H](OC)C2)CC(=O)[C@H](C)/C=C(\C)[C@@H](O)[C@@H](OC)C(=O)[C@H](C)C[C@H](C)/C=C/C=C/C=C/1C` [zotarolimus]: the “zotarolimus elution rate / total cumulative release, combination with fluocinolone vs zotarolimus alone” value is reported as “increased”.
